Assay results taken from patent US9732078B2, “Therapeutic use of imidazopyridine derivatives” (SANOFI, priority 2012, dated 2017).
Structures can show the parent of a compound that is named as a salt. Values belong to the compound of their own block, whether it stands above or below them.

Experiments:
[1] = system: TCC97-7 bladder cancer tumour cells carrying the Ser249Cys mutation of FGF receptor 3; experiment: Inhibition of serum-induced proliferation of TCC97-7 bladder cancer cells (count of Hoechst 33342-labelled nuclei after 3 days); format: cell-based; settings: TCC97-7 cells in presence of serum; for inhibition at 0.01 µM / inhibition at 0.1 µM / inhibition at 1 µM / inhibition at 10 µM: 72 h
Experimental: To do this, 2000 cells are seeded in the morning in 50 μl of complete medium (Ham-F/12, 1% FCS, 2 mM glutamine, non-essential amino acids, sodium pyruvate, 1% insulin/transferrin/selenium, hydrocortisone). In the evening, 50 μl of the various compounds are added at 0.02, 0.2, 2 or 20 μM after dilution in complete culture medium in order to obtain final concentrations of 0.01, 0.1, 1 and 10 μM. After 3 days, the cell proliferation is evaluated by measuring the number of nuclei at the bottom of each well corresponding to a number of cells. The nuclei are detected by means of labelling with Hoechst 33342 (Invitrogen, ref H3570). 100 μl of Hoechst 33342 diluted to 1/5000th in PBS are added to each well for 30 min at ambient temperature on non-fixed cells. The nuclei are detected by fluorescence at 350 nm at ×2 magnification with an Operetta (PerkinElmer) using the Acapella (PerkinElmer) imaging software and analysed using the Columbus (PerkinElmer) image analysis software. The percentage inhibition of the cell proliferation is calculated by considering the number of nuclei present in the wells in which the TCC97-7 cells are cultured in the absence of FGF-R antagonists to be 0% inhibition. 100% inhibition would correspond to a well no longer containing cells.

[2] = Cytotoxic effect: percentage of permeabilized (very fluorescent, Hoechst 33342) TCC97-7 cells; format: cell-based; settings: human, read-out: Cytotoxicity (% of permeable cells)
Experimental: (§1) In parallel to their antiproliferative capacity, the potential cytotoxic effect of the FGF-R antagonists is measured by means of quantifying the number of cells of which the membranes are permeabilized. The appearance of pores in the plasma membrane of the cells corresponds to a state of cell death which enables the Hoechst 33342 to penetrate more easily into the cell. This is reflected by a very strong increase in the amount of fluorescence detected in the nuclei. The percentage of cells in a state of cell death is calculated by the ratio between the number of very fluorescent nuclei to the total number of nuclei, multiplied by 100. The observations are carried out in the same way as the quantification of the nuclei for the cell proliferation.

[3] = system: TCC97-7 bladder cancer cells carrying the Ser249Cys mutation of FGF receptor 3; experiment: Reduction of intracellular ATP content of TCC97-7 cells (Cell Titer-Glo, 3 days, serum-supplemented medium); format: cell-based; settings: TCC97-7 cells in presence of serum; for inhibition at 0.1 µM / inhibition at 1 µM / inhibition at 10 µM: 72 h, read-out: Inhibition of the amount of intracellular ATP (%)
Experimental: Evaluation of the Capacity of the FGF-R Antagonists to Reduce the ATP Content of TCC97-7 Bladder Cancer Cells Carrying the Ser249Cys Mutation of FGF Receptor 3, Cultured in a Serum-Supplemented Medium
To do this, 3000 cells are seeded in 50 μl of complete medium (Ham-F/12, 1% FCS, […], non-essential amino acids, sodium pyruvate, 1% insulin/transferrin/selenium, hydrocortisone). 16 hours later, 50 μl of the various compounds are added at 0.2, 2, 20 and 60 μM after dilution in complete culture medium in order to obtain final concentrations of 0.1, 1, 10 and 30 μM. After 3 days, the ATP content of the cells is measured using the Cell Titer-Glo® Luminescent Cell Viability Assay kit (Promega, France) according to the supplier's recommendations. The percentage inhibition of the amount of intracellular ATP is calculated by considering the ATP content of the cells cultured in the absence of antagonist to be 0% inhibition. 100% inhibition would correspond to a well in which the ATP content is zero.

[4] = system: TCC97-7 bladder cancer tumour cells carrying the Ser249Cys mutation of FGF receptor 3; experiment: Cytotoxic effect: percentage of permeabilized (very fluorescent, Hoechst 33342) TCC97-7 cells; format: cell-based; settings: 3 days
Experimental: as §1

melting point: 215 °C
SMILES: Cl.Cn1c(=O)n(Cc2ccc(F)cc2)c(=O)c2cc(C(=O)c3nc(-c4cccc(C(=O)OCCN5CCOCC5)c4)c4ccccn34)ccc21

melting point: 267 °C
SMILES: Cn1c(=O)n(Cc2ccc(F)cc2)c(=O)c2cc(C(=O)c3nc(-c4cccnc4)c4ccccn34)ccc21 (as salt: hydrochloride) [compound 112, 3-(4-Fluorobenzyl)-1-methyl-6-[(1-pyridin-3-ylimidazo[1,5-a]pyridin-3-yl)carbonyl]quinazoline-2,4(1H, 3H)-dione]

melting point: 289 °C
SMILES: O=C(c1ccc2nc[nH]c(=O)c2c1)c1ncc2ccccn12 [compound 3, 6-(Imidazo[1,5-a]pyridin-3-ylcarbonyl)quinazolin-4(3H)-one]

melting point: 334 °C
SMILES: CCCn1c(=O)[nH]c2ccc(C(=O)c3nc(NS(C)(=O)=O)c4ccccn34)cc2c1=O [compound 13, N-{3-[(2,4-dioxo-3-propyl-1,2,3,4-tetrahydroquinazolin-6-yl)carbonyl]imidazo[1,5-a]pyridin-1-yl}methanesulphonamide]

melting point: 247 °C
SMILES: CN(C)CCNC(=O)c1cccc(-c2nc(C(=O)c3ccc4c(c3)c(=O)n(Cc3ccc(F)cc3)c(=O)n4C)n3ccccc23)c1.Cl [compound 116, N-[2-(dimethylamino)ethyl]-3-(3-{[3-(4-fluorobenzyl)-1-methyl-2,4-dioxo-1,2,3,4-tetrahydroquinazolin-6-yl]carbonyl}imidazo[1,5-a]pyridin-1-yl)benzamide hydrochloride]
inhibition at 0.01 µM ([1]; 0.01 μM): -1%
inhibition at 0.1 µM ([1]; 0.1 μM): -3%
inhibition at 1 µM ([1]; 1 μM): 22%
inhibition at 10 µM ([1]; 10 μM): 83%
cytotoxicity at 3 days, 0.01 µM [2]: 2%
cytotoxicity at 3 days, 0.1 µM [2]: 2%
cytotoxicity at 3 days, 1 µM [2]: 2%
cytotoxicity at 3 days, 10 µM [2]: 3%
inhibition at 0.1 µM ([3]; 0.1 μM): 6%
inhibition at 1 µM ([3]; 1 μM): 9%
inhibition at 10 µM ([3]; 10 μM): 95%

The next lines start with the compound.

SMILES: CCCn1c(=O)[nH]c2ccc(C(=O)c3ncc4ccc(C(=O)O)cn34)cc2c1=O [compound 8, 3-[(2,4-Dioxo-3-propyl-1,2,3,4-tetrahydroquinazolin-6-yl)carbonyl]imidazo[1,5-a]pyridine-6-carboxylic acid]
melting point: 384 °C

SMILES: CCCn1c(=O)[nH]c2ccc(C(=O)c3nc(-c4cccc(C(N)=O)c4)c4ccccn34)cc2c1=O [compound 29, 3-{3[(2,4-Dioxo-3-propyl-1,2,3,4-tetrahydroquinazolin-6-yl)carbonyl]imidazo[1,5-a]pyridin-1-yl}benzamide]
inhibition at 0.01 µM ([1]; 0.01 μM): 6%
inhibition at 0.1 µM ([1]; 0.1 μM): 9%
inhibition at 1 µM ([1]; 1 μM): 45%
inhibition at 10 µM ([1]; 10 μM): 71%
cytotoxicity at 3 days, 0.01 µM [2]: 3%
cytotoxicity at 3 days, 0.1 µM [2]: 3%
cytotoxicity at 3 days, 1 µM [2]: 8%
cytotoxicity at 3 days, 10 µM [2]: 17%
inhibition at 0.1 µM ([3]; 0.1 μM): -4%
inhibition at 1 µM ([3]; 1 μM): 8%
inhibition at 10 µM ([3]; 10 μM): 24%

SMILES: CCCn1c(C)nc2ccc(C(=O)c3nc(-c4cccc(C(N)=O)c4)c4ccccn34)cc2c1=O [compound 55, 3-{3-[(2-Methyl-4-oxo-3-propyl-3,4-dihydroquinazolin-6-yl)carbonyl]imidazo[1,5-a]pyridin-1-yl}benzamide]
inhibition at 0.01 µM ([1]; 0.01 μM): 3%
inhibition at 0.1 µM ([1]; 0.1 μM): -2%
inhibition at 1 µM ([1]; 1 μM): 29%
inhibition at 10 µM ([1]; 10 μM): 47%
cytotoxicity at 3 days, 0.01 µM [2]: 5%
cytotoxicity at 3 days, 0.1 µM [2]: 5%
cytotoxicity at 3 days, 1 µM [2]: 6%
cytotoxicity at 3 days, 10 µM [2]: 6%
inhibition at 0.1 µM ([3]; 0.1 μM): 11%
inhibition at 1 µM ([3]; 1 μM): 17%
inhibition at 10 µM ([3]; 10 μM): 57%

SMILES: Cn1c(=O)n(Cc2ccc(F)cc2)c(=O)c2cc(C(=O)c3nc(-c4cccnc4)c4ccccn34)ccc21 [compound 112, 3-(4-Fluorobenzyl)-1-methyl-6-[(1-pyridin-3-ylimidazo[1,5-a]pyridin-3-yl)carbonyl]quinazoline-2,4(1H, 3H)-dione]
inhibition at 0.01 µM ([1]; 0.01 μM): 8%
inhibition at 0.1 µM ([1]; 0.1 μM): 18%
inhibition at 1 µM ([1]; 1 μM): 61%
inhibition at 10 µM ([1]; 10 μM): 84%
cytotoxicity at 3 days, 0.01 µM [2]: 4%
cytotoxicity at 3 days, 0.1 µM [2]: 4%
cytotoxicity at 3 days, 1 µM [2]: 16%
cytotoxicity at 3 days, 10 µM [2]: 11%
inhibition at 0.1 µM ([3]; 0.1 μM): -3%
inhibition at 1 µM ([3]; 1 μM): 51%
inhibition at 10 µM ([3]; 10 μM): 88%

SMILES: Cc1ccc(Cn2c(=O)c3cc(C(=O)c4nc(-c5cccc(C(=O)[O-])c5)c5ccccn45)ccc3n(C)c2=O)s1.[Na+] [compound 291]
Inhibition of proliferation (%) ([1]; 0.01 μM): 1%
Inhibition of proliferation (%) ([1]; 0.1 μM): 5%
Inhibition of proliferation (%) ([1]; 1 μM): 40%
Inhibition of proliferation (%) ([1]; 10 μM): 81%
Cytotoxicity (% of permeable cells) ([4]; 0.01 μM): 2%
Cytotoxicity (% of permeable cells) ([4]; 0.1 μM): 2%
Cytotoxicity (% of permeable cells) ([4]; 1 μM): 2%
Cytotoxicity (% of permeable cells) ([4]; 10 μM): 4%
Inhibition of the amount of intracellular ATP (%) ([3]; 0.1 μM): 8%
Inhibition of the amount of intracellular ATP (%) ([3]; 1 μM): 27%
Inhibition of the amount of intracellular ATP (%) ([3]; 10 μM): 71%
